Experimental data reported in ChEMBL document CHEMBL1221262, “Synthesis and antituberculosis activity of new fatty acid amides” (2010).
≈ marks a conversion by molar mass, not a printed value.

How the values were obtained:
[1] = tested on: Mycobacterium tuberculosis; assay: Antitubercular activity against isoniazid-resistant Mycobacterium tuberculosis H37Rv ATCC 35822 after 7 days by resazurin microtiter assay; format: functional; conditions: H37Rv ATCC 35822, 168 h
[2] = tested on: Mycobacterium tuberculosis; assay: Antitubercular activity against rifampicin-resistant Mycobacterium tuberculosis H37Rv ATCC 35338 after 7 days by resazurin microtiter assay; format: functional; conditions: H37Rv ATCC 35338, 168 h

Row | SMILES | MIC [1] | MIC [2]
1 | CCCCCCCC/C=C\CCCCCCCC(=O)NCc1ccccc1 | 100 µg/mL (≈ 269 µM) | –
2 | CCCCCCCCCCCCCCCC(=O)N[C@@H](C)c1ccccc1 | > 100 µg/mL | > 100 µg/mL
3 | CCCCCC[C@@H](O)C/C=C\CCCCCCCC(=O)N1CCOCC1 | 6.25 µg/mL (≈ 17 µM) | 12.5 µg/mL (≈ 34 µM)
4 | CCCCCC[C@@H](O)C/C=C\CCCCCCCC(=O)N[C@@H](C)c1ccccc1 | 100 µg/mL (≈ 249 µM) | 50 µg/mL (≈ 124 µM)
5 | CCCCC/C=C\C/C=C\CCCCCCCC(=O)N[C@@H](C)c1ccccc1 | 6.25 µg/mL (≈ 16.3 µM) | 12.5 µg/mL (≈ 32.6 µM)
6 | CCCCCCCC/C=C\CCCCCCCC(=O)N1CCCC1 | 6.25 µg/mL (≈ 18.6 µM) | 12.5 µg/mL (≈ 37.2 µM)
7 | CCCCCC[C@@H](O)C/C=C\CCCCCCCC(=O)NCc1ccccc1 | 12.5 µg/mL (≈ 32.2 µM) | 12.5 µg/mL (≈ 32.2 µM)
8 | CCCCCCCCCCCCCCCC(=O)NCCO [PALMIDROL] | > 100 µg/mL | > 100 µg/mL
9 | CCCCC/C=C\C/C=C\CCCCCCCC(=O)N[C@H](C)c1ccccc1 | 12.5 µg/mL (≈ 32.6 µM) | 25 µg/mL (≈ 65.2 µM)
10 | CCCCCCCC/C=C\CCCCCCCC(=O)N1CCOCC1 | 6.25 µg/mL (≈ 17.8 µM) | 12.5 µg/mL (≈ 35.6 µM)
11 | CCCCCCCC/C=C\CCCCCCCC(=O)NC(C)c1ccccc1 (configuration not stated) | – | 100 µg/mL (≈ 259 µM)
12 | CCCCCCCCCCCCCCCC(=O)N[C@H](C)c1ccccc1 | > 100 µg/mL | > 100 µg/mL
13 | CCCCCC[C@@H](O)C/C=C\CCCCCCCC(=O)N[C@H](C)c1ccccc1 | 12.5 µg/mL (≈ 31.1 µM) | 25 µg/mL (≈ 62.2 µM)
14 | CCCCCC[C@@H](O)C/C=C\CCCCCCCC(=O)N1CCCC1 | 6.25 µg/mL (≈ 17.8 µM) | 6.25 µg/mL (≈ 17.8 µM)
15 | CCCCCCCC/C=C\CCCCCCCC(=O)NCCO [OLEOYLETHANOLAMIDE] | 12.5 µg/mL (≈ 38.4 µM) | 25 µg/mL (≈ 76.8 µM)
16 | CCCCCCCCCCCCCCCC(=O)N1CCCC1 | 25 µg/mL (≈ 80.8 µM) | 25 µg/mL (≈ 80.8 µM)
17 | CCCCC/C=C\C/C=C\CCCCCCCC(=O)N1CCCC1 | 12.5 µg/mL (≈ 37.5 µM) | 12.5 µg/mL (≈ 37.5 µM)
18 | CCCCCCCCCCCCCCCCCC(=O)N[C@H](C)c1ccccc1 | > 100 µg/mL | > 100 µg/mL
19 | CCCCCCCC/C=C\CCCCCCCC(=O)N[C@H](C)c1ccccc1 | 12.5 µg/mL (≈ 32.4 µM) | 50 µg/mL (≈ 130 µM)
20 | CCCCCCCCCCCCCCCCCC(=O)N[C@@H](C)c1ccccc1 | > 100 µg/mL | > 100 µg/mL
21 | CCCCCCCCCCCCCCCC(=O)N1CCCCC1 | 25 µg/mL (≈ 77.3 µM) | 25 µg/mL (≈ 77.3 µM)
22 | CCCCCCCC/C=C\CCCCCCCC(=O)N1CCCCC1 | 12.5 µg/mL (≈ 35.8 µM) | 25 µg/mL (≈ 71.5 µM)
